Values after ≈ are worked out from the molar mass of the structure shown. Active and inactive are the calls of the source. No cut-off for these calls is given here.
Experiments:
Staphylococcus aureus [1] = assay: Antibacterial activity against methicillin-resistant Staphylococcus aureus assessed as resistance development by measuring increase in MIC measured after 14 days by resistance development assay (reference value: 1 ug/ml); assay type: functional; conditions: 336 h, time 14 day
Staphylococcus aureus [2] = assay: Antibacterial activity against methicillin-resistant Staphylococcus aureus assessed as bacterial growth inhibition incubated for 18 hrs by CLSI protocol based Mueller-Hinton broth assay; assay type: functional
Enterococcus faecalis = assay: Antibacterial activity against Enterococcus faecalis assessed as bacterial growth inhibition incubated for 18 hrs by CLSI protocol based Mueller-Hinton broth assay; assay type: functional
Escherichia coli = assay: Antibacterial activity against Escherichia coli assessed as bacterial growth inhibition incubated for 18 hrs by CLSI protocol based Mueller-Hinton broth assay; assay type: functional
[3] = test system: Stenotrophomonas maltophilia; assay: Antibacterial activity against Stenotrophomonas maltophilia assessed as bacterial growth inhibition incubated for 18 hrs by CLSI protocol based Mueller-Hinton broth assay; assay type: functional
Erythrocyte = assay: (§1) Hemolytic activity in sheep RBC assessed as hemolysis incubated for 1 hr by microplate reader method; assay type: toxicity, cell-based, Ovis aries; conditions: erythrocyte, 1 h
[4] = Selectivity index, ratio of HC50 for hemolytic activity in sheep RBC to MIC for antibacterial activity against methicillin-resistant Staphylococcus aureus assessed as bacterial growth inhibition; assay type: toxicity; conditions: for Ratio: erythrocytes; for selectivity ratio: sheep red blood cells
[5] = as §1; assay type: toxicity, cell-based, Ovis aries, Erythrocyte; conditions: sheep red blood cells
Staphylococcus aureus [6] = assay: Antibacterial activity against methicillin-resistant Staphylococcus aureus clinical isolates assessed as bacterial growth inhibition incubated for 18 hrs by CLSI protocol based Mueller-Hinton broth assay; assay type: functional
Staphylococcus aureus [7] = assay: Bactericidal activity against methicillin-resistant Staphylococcus aureus at 3 ug/ml measured after 12 hrs by time-killing kinetics assay; assay type: functional, organism-based; conditions: dose 3.0 µg/ml
Staphylococcus aureus [8] = assay: In vivo antibacterial activity against methicillin-resistant Staphylococcus aureus infected in SPF Kunming mouse assessed as reduction in amount of bacteria measure per abscess at 5 mg/kg ,ip administered every 12 hrs for 3 consecutive days; assay type: functional; conditions: time 3 day
Staphylococcus aureus [9] = assay: In vivo antibacterial activity against methicillin-resistant Staphylococcus aureus infected in SPF Kunming mouse assessed as reduction in neutrophils in skin tissue at 10 mg/kg ,ip administered every 12 hrs for 3 consecutive days; assay type: functional, organism-based; conditions: time 3.0 day
Staphylococcus aureus [10] = assay: In vivo antibacterial activity against methicillin-resistant Staphylococcus aureus infected in SPF Kunming mouse assessed as reduction in inflammation in skin tissue at 10 mg/kg ,ip administered every 12 hrs for 3 consecutive days; assay type: functional, organism-based; conditions: time 3.0 day
Staphylococcus aureus [11] = assay: Bactericidal activity against methicillin-resistant Staphylococcus aureus assessed as reduction in turbidity at 3 ug/ml measured after 6 hrs; assay type: functional, organism-based; conditions: dose 3.0 µg/ml
[12] = Cytotoxicity against HUVEC cells assessed as reduction in cell viability incubated for 72 hrs by CCK8 assay; assay type: toxicity, cell-based; conditions: human
[13] = Staphylococcus aureus, read-out: MIC
[14] = Enterococcus faecalis, 18 h, read-out: MIC
[15] = Escherichia coli, 18 h, read-out: MIC
[16] = Stenotrophomonas maltophilia, read-out: MIC

| Structure (SMILES) | MIC (Staphylococcus aureus [2]; [13]) | MIC (Enterococcus faecalis; [14]) | MIC (Escherichia coli; [15]) | MIC [3, 16] | HC50 at 1 h [5] | selectivity ratio [4] | MIC (Staphylococcus aureus [6]) | other results |
| --- | --- | --- | --- | --- | --- | --- | --- | --- |
| CCn1cc(C(=O)O)c(=O)c2cc(F)c(N3CCNCC3)cc21 [NORFLOXACIN] |  |  |  |  |  |  |  | MIC (Staphylococcus aureus [1]): 128 µg/mL (≈ 401 µM) |
| CCCCCCN(CCCOc1ccc2ccccc2c1-c1c(OCCCN(CCCCCC)C(=O)[C@@H](N)CCCCN)ccc2ccccc12)C(=O)[C@@H](N)CCCCN.Cl.Cl.Cl.Cl (stereo in doubt; 8p) |  |  |  |  |  |  |  | MIC (Staphylococcus aureus [2]): 1 µg/mL; MIC (Enterococcus faecalis): 1 µg/mL; MIC (Escherichia coli): 2 µg/mL; MIC [3]: 1 µg/mL; HC50 (Erythrocyte): 117 µg/mL; Ratio [4]: 117 |
| CCCCCCN(CCCOc1cc2ccccc2cc1OCCCN(CCCCCC)C(=O)[C@@H](N)CCCCN)C(=O)[C@@H](N)CCCCN.Cl.Cl.Cl.Cl | 1 µg/mL | 1 µg/mL | 8 µg/mL | 4 µg/mL | > 1000 µg/mL | > 1000 | 0.5 µg/mL |  |
| CN[C@H](CC(C)C)C(=O)N[C@H]1C(=O)N[C@@H](CC(N)=O)C(=O)N[C@H]2C(=O)N[C@H]3C(=O)N[C@H](C(=O)N[C@H](C(=O)O)c4cc(O)cc(O)c4-c4cc3ccc4O)[C@H](O)c3ccc(c(Cl)c3)Oc3cc2cc(c3O[C@@H]2O[C@H](CO)[C@@H](O)[C@H](O)[C@H]2O[C@H]2C[C@](C)(N)[C@H](O)[C@H](C)O2)Oc2ccc(cc2Cl)[C@H]1O [VANCOMYCIN] |  |  |  |  | > 1000 µg/mL |  |  | Activity (Staphylococcus aureus [7]): Active; Activity (Staphylococcus aureus [8]): 14454.4 CFU; Activity (Staphylococcus aureus [9]): Active; Activity (Staphylococcus aureus [10]): Active; Activity (Staphylococcus aureus [11]): Active |
| CCCCCCCN(CCCOc1ccc(OCCCN(CCCCCCC)C(=O)[C@@H](N)CCCCN)cc1)C(=O)[C@@H](N)CCCCN.Cl.Cl.Cl.Cl | 2 µg/mL | 1 µg/mL | 4 µg/mL | 2 µg/mL | 402 µg/mL | 201 | 0.5 µg/mL |  |
| CCCCCCCCN(CCCOc1ccc2ccccc2c1-c1c(OCCCN(CCCCCCCC)C(=O)[C@@H](N)CCCCN)ccc2ccccc12)C(=O)[C@@H](N)CCCCN.Cl.Cl.Cl.Cl (stereo in doubt; 8r) |  |  |  |  |  |  |  | MIC (Staphylococcus aureus [2]): 4 µg/mL; MIC (Enterococcus faecalis): 2 µg/mL; MIC (Escherichia coli; 18 h): 4 µg/mL; MIC [3]: 4 µg/mL; HC50 (Erythrocyte): 136 µg/mL; Ratio [4]: 34 |
| CCCCCCCN(CCOc1ccc(OCCN(CCCCCCC)C(=O)[C@@H](N)CCCCN)cc1)C(=O)[C@@H](N)CCCCN.Cl.Cl.Cl.Cl | 1 µg/mL | 1 µg/mL | 4 µg/mL | 2 µg/mL | 478 µg/mL | 478 | 0.5 µg/mL |  |
| C=C[C@]1(C)C[C@@H](OC(=O)CS[C@@H]2C[C@H]3CC[C@@H](C2)N3C)[C@]2(C)[C@H](C)CC[C@]3(CCC(=O)[C@H]32)[C@@H](C)[C@@H]1O [RETAPAMULIN] |  |  |  |  |  |  |  | CC50 at 72 h [12]: 25.5 µg/mL (≈ 49.2 µM) |
| CCCCCCCN(CCCOc1ccc2ccccc2c1-c1c(OCCCN(CCCCCCC)C(=O)[C@@H](N)CCCCN)ccc2ccccc12)C(=O)[C@@H](N)CCCCN.Cl.Cl.Cl.Cl (stereo in doubt; 8q) |  |  |  |  |  |  |  | MIC (Staphylococcus aureus [2]): 2 µg/mL; MIC (Enterococcus faecalis; 18 h): 1 µg/mL; MIC (Escherichia coli): 2 µg/mL; MIC [3]: 2 µg/mL; HC50 (Erythrocyte): 7 µg/mL; Ratio [4]: 3.5 |
| CCCCCCN(CCCOc1ccc2c(OCCCN(CCCCCC)C(=O)[C@@H](N)CCCCN)cccc2c1)C(=O)[C@@H](N)CCCN.Cl.Cl.Cl.Cl | 2 µg/mL | 2 µg/mL | 2 µg/mL | 2 µg/mL | 612 µg/mL | 306 | 0.5 µg/mL |  |
| CCCCCCCN(CCCOc1ccc2ccccc2c1-c1c(OCCCN(CCCCCCC)C(=O)[C@@H](N)CCCCN)ccc2ccccc12)C(=O)[C@@H](N)CCCCN.Cl.Cl.Cl.Cl (stereo in doubt; 8n) | 2 µg/mL | 2 µg/mL | 2 µg/mL | 2 µg/mL |  |  |  | HC50 (Erythrocyte): 31 µg/mL; Ratio [4]: 15.5 |
| CCCCCCN(CCCOc1cccc(OCCCN(CCCCCC)C(=O)[C@@H](N)CCCCN)c1)C(=O)[C@@H](N)CCCCN.Cl.Cl.Cl.Cl | 2 µg/mL | 4 µg/mL | 16 µg/mL | 8 µg/mL | > 1000 µg/mL | > 500 | 0.5 µg/mL |  |
| CCCCCCCN(CCCOc1cccc(OCCCN(CCCCCCC)C(=O)[C@@H](N)CCCCN)c1)C(=O)[C@@H](N)CCCCN.Cl.Cl.Cl.Cl | 1 µg/mL | 1 µg/mL | 2 µg/mL | 4 µg/mL | 814 µg/mL | 814 | 0.5 µg/mL |  |
| CC[C@H](C)[C@H](NC(=O)CN)C(=O)NCC(=O)N[C@@H](C)C(=O)N[C@H](C(=O)N[C@@H](CC(C)C)C(=O)N[C@@H](CCCCN)C(=O)N[C@H](C(=O)N[C@@H](CC(C)C)C(=O)N[C@H](C(=O)N[C@H](C(=O)NCC(=O)N[C@@H](CC(C)C)C(=O)N1CCC[C@H]1C(=O)N[C@@H](C)C(=O)N[C@@H](CC(C)C)C(=O)N[C@H](C(=O)N[C@@H](CO)C(=O)N[C@@H](Cc1c[nH]c2ccccc12)C(=O)N[C@H](C(=O)N[C@@H](CCCCN)C(=O)N[C@@H](CCCNC(=N)N)C(=O)N[C@@H](CCCCN)C(=O)N[C@@H](CCCNC(=N)N)C(=O)N[C@@H](CCC(N)=O)C(=O)N[C@@H](CCC(N)=O)C(N)=O)[C@@H](C)CC)[C@@H](C)CC)[C@@H](C)O)[C@@H](C)O)C(C)C)C(C)C [MELITTIN] |  |  |  |  |  |  |  | CC50 at 72 h [12]: 5.8 µg/mL (≈ 2.04 µM) |
